# Reference: patent US20170233413A1, “SUBSTITUTED ANNULATED PYRIMIDINES AND USE THEREOF” (Bayer Pharma Aktiengesellschaft, priority 2014, published 2017)
# Legend:
# [1] = molecular target: T1, human phosphodiesterase 5 (PDE 5) (Homo sapiens, UniProt O76074); experiment: Inhibition of human phosphodiesterase 5 (PDE 5); assay type: biochemical; details: PDE 5 preparation from human platelets; in some cases means of individual determinations
# T1 construct: PDE 5 preparations are obtained from human platelets by disruption; from tissue; host or cells: human platelets
# Outline: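 IC50 comes from percent inhibition over a 1:3 series with final levels of 4 to 0.0018 μM. Reaction: tritiated cGMP tracer (0.025 μCi) with platelet-derived, Mono Q-purified enzyme, 1 h at room temperature in Tris pH 7.5, under 70% turnover. Read-out by scintillation proximity beads.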
# [2] = molecular target: T2, recombinant guanylate cyclase reporter cell line (Rattus norvegicus, UniProt P19686+P20595); experiment: Effect on a recombinant guanylate cyclase reporter cell line; assay type: cell-based; details: MEC = minimum effective concentration; in some cases means of individual determinations
# T2 construct: expressed in transfected cells
# T2 sequence (P19686 1-690): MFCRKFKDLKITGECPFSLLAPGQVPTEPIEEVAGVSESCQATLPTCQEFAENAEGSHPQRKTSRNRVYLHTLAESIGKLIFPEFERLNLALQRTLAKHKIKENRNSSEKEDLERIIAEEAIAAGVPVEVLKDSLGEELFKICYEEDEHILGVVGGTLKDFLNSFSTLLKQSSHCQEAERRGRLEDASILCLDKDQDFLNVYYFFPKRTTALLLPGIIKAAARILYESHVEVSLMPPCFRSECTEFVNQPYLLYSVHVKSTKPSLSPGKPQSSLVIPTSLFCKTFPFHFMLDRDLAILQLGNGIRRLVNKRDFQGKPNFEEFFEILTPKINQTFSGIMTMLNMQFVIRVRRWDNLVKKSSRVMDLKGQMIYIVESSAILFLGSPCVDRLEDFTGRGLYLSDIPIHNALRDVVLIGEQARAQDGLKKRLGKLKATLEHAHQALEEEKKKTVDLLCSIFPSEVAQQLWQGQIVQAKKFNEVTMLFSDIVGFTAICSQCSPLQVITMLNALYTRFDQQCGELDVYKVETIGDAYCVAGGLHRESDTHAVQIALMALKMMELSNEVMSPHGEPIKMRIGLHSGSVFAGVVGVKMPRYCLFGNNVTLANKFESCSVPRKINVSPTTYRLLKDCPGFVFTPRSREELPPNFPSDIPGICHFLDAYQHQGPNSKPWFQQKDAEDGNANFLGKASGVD
# T2 sequence (P20595 1-619): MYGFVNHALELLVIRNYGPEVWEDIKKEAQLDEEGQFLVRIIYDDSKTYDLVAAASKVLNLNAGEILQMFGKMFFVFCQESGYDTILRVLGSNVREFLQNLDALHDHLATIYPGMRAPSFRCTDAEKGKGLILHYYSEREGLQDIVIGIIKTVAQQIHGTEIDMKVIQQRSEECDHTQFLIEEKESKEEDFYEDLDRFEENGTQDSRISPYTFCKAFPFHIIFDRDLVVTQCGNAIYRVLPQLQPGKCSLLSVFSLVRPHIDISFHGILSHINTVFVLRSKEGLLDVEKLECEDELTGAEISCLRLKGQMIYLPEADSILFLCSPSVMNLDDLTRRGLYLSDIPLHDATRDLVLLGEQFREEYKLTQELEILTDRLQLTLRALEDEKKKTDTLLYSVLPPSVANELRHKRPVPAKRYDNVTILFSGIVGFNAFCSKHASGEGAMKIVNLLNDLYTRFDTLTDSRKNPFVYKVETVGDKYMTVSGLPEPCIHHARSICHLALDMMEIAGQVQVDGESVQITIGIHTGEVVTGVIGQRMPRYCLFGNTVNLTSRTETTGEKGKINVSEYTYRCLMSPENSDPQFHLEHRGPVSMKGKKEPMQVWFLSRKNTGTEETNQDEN
# Outline: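 Values are reported as MEC, sometimes averaged over individual determinations. The test system is a reporter cell line expressing recombinant rat guanylate cyclase.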
Structure (SMILES),IC50 [1] [nM],MEC [2] [µM]
"CC1(C)C(=O)Nc2nc(-c3nn(Cc4ccccc4F)c4ncccc34)nc(C(=O)NCC3CC3)c21 [Example 84, N-(cyclopropylmethyl)-2-[1-(2-fluorobenzyl)-1H-pyrazolo[3,4-b]pyridin-3-yl]-5,5-dimethyl-6-oxo-6,7-dihydro-5H-pyrrolo[2,3-d]pyrimidine-4-carboxamide]",23,0.1
"CC(C)=CCNC(=O)c1nc(-c2nn(Cc3ccccc3F)c3ncccc23)nc2c1C(C)(C)C(=O)N2 [Example 85, 2-[1-(2-fluorobenzyl)-1H-pyrazolo[3,4-b]pyridin-3-yl]-5,5-dimethyl-N-(3-methylbut-2-en-1-yl)-6-oxo-6,7-dihydro-5H-pyrrolo[2,3-d]pyrimidine-4-carboxamide]",38,0.1
"CNC(=O)c1nc(-c2nn(Cc3ccccc3F)c3ncccc23)nc2c1C(C)(C)C(=O)N2 [Example 86, 2-[1-(2-fluorobenzyl)-1H-pyrazolo[3,4-b]pyridin-3-yl]-N,5,5-trimethyl-6-oxo-6,7-dihydro-5H-pyrrolo[2,3-d]pyrimidine-4-carboxamide]",44,0.1
"CC1(C)C(=O)Nc2nc(-c3nn(Cc4ccccc4F)c4ncccc34)nc(C(=O)Nc3cc[nH]n3)c21 [Example 87, 2-[1-(2-fluorobenzyl)-1H-pyrazolo[3,4-b]pyridin-3-yl]-5,5-dimethyl-6-oxo-N-(1H-pyrazol-3-yl)-6,7-dihydro-5H-pyrrolo[2,3-d]pyrimidine-4-carboxamide]",24,0.3
"CC1(C)C(=O)Nc2nc(-c3nn(Cc4ccccc4F)c4ncccc34)nc(C(=O)Nc3cccnc3)c21 [Example 89, 2-[1-(2-fluorobenzyl)-1H-pyrazolo[3,4-b]pyridin-3-yl]-5,5-dimethyl-6-oxo-N-(pyridin-3-yl)-6,7-dihydro-5H-pyrrolo[2,3-d]pyrimidine-4-carboxamide]",9,0.3
"COCCCNC(=O)c1nc(-c2nn(Cc3ccccc3F)c3ncccc23)nc2c1C(C)(C)C(=O)N2 [Example 90, 2-[1-(2-fluorobenzyl)-1H-pyrazolo[3,4-b]pyridin-3-yl]-N-(3-methoxypropyl)-5,5-dimethyl-6-oxo-6,7-dihydro-5H-pyrrolo[2,3-d]pyrimidine-4-carboxamide]",14,0.1
"Cc1ccc(NC(=O)c2nc(-c3nn(Cc4ccccc4F)c4ncccc34)nc3c2C(C)(C)C(=O)N3)cn1 [Example 91, 2-[1-(2-fluorobenzyl)-1H-pyrazolo[3,4-b]pyridin-3-yl]-5,5-dimethyl-N-(6-methylpyridin-3-yl)-6-oxo-6,7-dihydro-5H-pyrrolo[2,3-d]pyrimidine-4-carboxamide]",68,0.3
"CC1(C)C(=O)Nc2nc(-c3nn(Cc4ccccc4F)c4ncccc34)nc(C(=O)NCC3CCCC3)c21 [Example 92, N-(cyclopentylmethyl)-2-[1-(2-fluorobenzyl)-1H-pyrazolo[3,4-b]pyridin-3-yl]-5,5-dimethyl-6-oxo-6,7-dihydro-5H-pyrrolo[2,3-d]pyrimidine-4-carboxamide]",35,0.3
"CC1(C)C(=O)Nc2nc(-c3nn(Cc4ccccc4F)c4ncccc34)nc(C(=O)Nc3nncs3)c21 [Example 93, 2-[1-(2-fluorobenzyl)-1H-pyrazolo[3,4-b]pyridin-3-yl]-5,5-dimethyl-6-oxo-N-(1,3,4-thiadiazol-2-yl)-6,7-dihydro-5H-pyrrolo[2,3-d]pyrimidine-4-carboxamide]",55,0.1
"CC1(C)C(=O)Nc2nc(-c3nn(Cc4ccccc4F)c4ncccc34)nc(C(=O)Nc3nnc[nH]3)c21 [Example 94, 2-[1-(2-fluorobenzyl)-1H-pyrazolo[3,4-b]pyridin-3-yl]-5,5-dimethyl-6-oxo-N-(4H-1,2,4-triazol-3-yl)-6,7-dihydro-5H-pyrrolo[2,3-d]pyrimidine-4-carboxamide]",16,0.3
"CC1(C)C(=O)Nc2nc(-c3nn(Cc4ccccc4F)c4ncccc34)nc(C(=O)NCCC(N)=O)c21 [Example 95, N-(3-amino-3-oxopropyl)-2-[1-(2-fluorobenzyl)-1H-pyrazolo[3,4-b]pyridin-3-yl]-5,5-dimethyl-6-oxo-6,7-dihydro-5H-pyrrolo[2,3-d]pyrimidine-4-carboxamide]",48,1
"CC1(C)C(=O)Nc2nc(-c3nn(Cc4ccccc4F)c4ncccc34)nc(C(=O)NCCOCC(F)(F)F)c21 [Example 96, 2-[1-(2-fluorobenzyl)-1H-pyrazolo[3,4-b]pyridin-3-yl]-5,5-dimethyl-6-oxo-N-[2-(2,2,2-trifluoroethoxy)ethyl]-6,7-dihydro-5H-pyrrolo[2,3-d]pyrimidine-4-carboxamide]",62,0.03
"CC1(NC(=O)c2nc(-c3nn(Cc4ccccc4F)c4ncccc34)nc3c2C(C)(C)C(=O)N3)CCC1 [Example 97, 2-[1-(2-fluorobenzyl)-1H-pyrazolo[3,4-b]pyridin-3-yl]-5,5-dimethyl-N-(1-methylcyclobutyl)-6-oxo-6,7-dihydro-5H-pyrrolo[2,3-d]pyrimidine-4-carboxamide]",8.2,0.3
"CC1(C)C(=O)Nc2nc(-c3nn(Cc4ccccc4F)c4ncccc34)nc(C(=O)NC3CCOCC3)c21 [Example 98, 2-[1-(2-fluorobenzyl)-1H-pyrazolo[3,4-b]pyridin-3-yl]-5,5-dimethyl-6-oxo-N-(tetrahydro-2H-pyran-4-yl)-6,7-dihydro-5H-pyrrolo[2,3-d]pyrimidine-4-carboxamide]",33,1
"CC1(C)C(=O)Nc2nc(-c3nn(Cc4ccccc4F)c4ncccc34)nc(C(=O)Nc3cn[nH]c3)c21 [Example 100, 2-[1-(2-fluorobenzyl)-1H-pyrazolo[3,4-b]pyridin-3-yl]-5,5-dimethyl-6-oxo-N-(1H-pyrazol-4-yl)-6,7-dihydro-5H-pyrrolo[2,3-d]pyrimidine-4-carboxamide]",4.3,0.3
"CC1(CNC(=O)c2nc(-c3nn(Cc4ccccc4F)c4ncccc34)nc3c2C(C)(C)C(=O)N3)COC1 [Example 103, 2-[1-(2-fluorobenzyl)-1H-pyrazolo[3,4-b]pyridin-3-yl]-5,5-dimethyl-N-[(3-methyloxetan-3-yl)methyl]-6-oxo-6,7-dihydro-5H-pyrrolo[2,3-d]pyrimidine-4-carboxamide]",10,0.3
"CC1(C)C(=O)Nc2nc(-c3nn(Cc4ccccc4F)c4ncccc34)nc(C(=O)Nc3cncc(F)c3)c21 [Example 107, 2-[1-(2-fluorobenzyl)-1H-pyrazolo[3,4-b]pyridin-3-yl]-N-(5-fluoropyridin-3-yl)-5,5-dimethyl-6-oxo-6,7-dihydro-5H-pyrrolo[2,3-d]pyrimidine-4-carboxamide]",73,0.3
"CC1(C)C(=O)Nc2nc(-c3nn(Cc4ccccc4F)c4ncccc34)nc(C(=O)Nc3cnccn3)c21 [Example 108, 2-[1-(2-fluorobenzyl)-1H-pyrazolo[3,4-b]pyridin-3-yl]-5,5-dimethyl-6-oxo-N-(pyrazin-2-yl)-6,7-dihydro-5H-pyrrolo[2,3-d]pyrimidine-4-carboxamide]",25,0.3
"Cn1cnc(NC(=O)c2nc(-c3nn(Cc4ccccc4F)c4ncccc34)nc3c2C(C)(C)C(=O)N3)n1 [Example 109, 2-[1-(2-fluorobenzyl)-1H-pyrazolo[3,4-b]pyridin-3-yl]-5,5-dimethyl-N-(1-methyl-1H-1,2,4-triazol-3-yl)-6-oxo-6,7-dihydro-5H-pyrrolo[2,3-d]pyrimidine-4-carboxamide]",39,0.3
